Results taken from PubChem BioAssay AID1963964 (Molecular Pharmacology Branch, DTP, NCI, 2024).

Tested on: 997726-040-R-J2-PDC tumor spheroids, viability
Assay: Anticancer human tumor 997726-040-R-J2-PDC patient-derived squamous cell lung carcinoma cell line growth inhibition [PI3K]
Settings: spheroids with HUVEC and MSC; for IC50: curve of first compound; for viability, T/C: stronger effect = lower value
How it was run: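 Spheroid viability read-out. Co-cultures contained the tumor line plus HUVEC and human MSCs. Each agent was paired with a PI3K inhibitor (inavolisib, alpelisib, duvelisib, copanlisib) across half-log dilutions starting at clinical Cmax, or at 10 microM when Cmax was unknown.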

[1] = second compound 0.0316 µM, first compound 0.0316 µM
[2] = second compound 0.0316 µM, first compound 0.1 µM
[3] = second compound 0.1 µM, first compound 0.0316 µM
[4] = second compound 0.1 µM, first compound 0.1 µM
[5] = second compound 0.316 µM, first compound 0.0316 µM
[6] = second compound 0.316 µM, first compound 0.1 µM
[7] = second compound 1 µM, first compound 0.0316 µM
[8] = second compound 1 µM, first compound 0.1 µM
[9] = second compound 3.16 µM, first compound 0.0316 µM
[10] = second compound 3.16 µM, first compound 0.1 µM
[11] = second compound 10 µM, first compound 0.0316 µM
[12] = second compound 10 µM, first compound 0.1 µM
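Note: spheroids exposed to compounds for seven days before readout.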

For `Cn1ncc(Cl)c1-c1cc(C(=O)NC(CN)Cc2cccc(F)c2)sc1Cl` (centres undefined) + Cc1nc(NC(=O)N2CCCC2C(N)=O)sc1-c1ccnc(C(C)(C)C(F)(F)F)c1, the IC50 (second compound 0.0316 µM) was 0.0967 µM, the IC50 (second compound 0.1 µM) was 0.0774 µM and the IC50 (second compound 0.316 µM) was 0.0321 µM. It also gave an IC50 (second compound 1 µM) of less than 0.0316 µM, an IC50 (second compound 3.16 µM) of less than 0.0316 µM and an IC50 (second compound 10 µM) of less than 0.0316 µM. The viability, T/C [1] was 68%, the viability, T/C [2] was 49.7% and the viability, T/C (second compound 0.0316 µM, first compound 0.316 µM) was 23.7%. It also gave a viability, T/C (second compound 0.0316 µM, first compound 1 µM) of 11.6%, a viability, T/C (second compound 0.0316 µM, first compound 3.16 µM) of 9.66% and a viability, T/C (second compound 0.0316 µM, first compound 10 µM) of 5.52%. It also gave a viability, T/C [3] of 65.4%, a viability, T/C [4] of 45.7% and a viability, T/C (second compound 0.1 µM, first compound 0.316 µM) of 25%. The viability, T/C (second compound 0.1 µM, first compound 1 µM) was 13%, the viability, T/C (second compound 0.1 µM, first compound 3.16 µM) was 9.73% and the viability, T/C (second compound 0.1 µM, first compound 10 µM) was 6.2%. It also gave a viability, T/C [5] of 50%, a viability, T/C [6] of 37.7% and a viability, T/C (second compound 0.316 µM, first compound 0.316 µM) of 22.5%. The viability, T/C (second compound 0.316 µM, first compound 1 µM) was 11.7%, the viability, T/C (second compound 0.316 µM, first compound 3.16 µM) was 9.53% and the viability, T/C (second compound 0.316 µM, first compound 10 µM) was 3.13%. It also gave a viability, T/C [7] of 39.9%, a viability, T/C [8] of 35.2% and a viability, T/C (second compound 1 µM, first compound 0.316 µM) of 21.6%. The viability, T/C (second compound 1 µM, first compound 1 µM) was 11.3%, the viability, T/C (second compound 1 µM, first compound 3.16 µM) was 8.3% and the viability, T/C (second compound 1 µM, first compound 10 µM) was 2.53%. For the same compound, the viability, T/C [9] was 25.3%, the viability, T/C [10] was 22.5% and the viability, T/C (second compound 3.16 µM, first compound 0.316 µM) was 13.9%. For the same compound, the viability, T/C (second compound 3.16 µM, first compound 1 µM) was 10%, the viability, T/C (second compound 3.16 µM, first compound 3.16 µM) was 6.18% and the viability, T/C (second compound 3.16 µM, first compound 10 µM) was 1.9%. It also gave a viability, T/C [11] of 15%, a viability, T/C [12] of 11.3% and a viability, T/C (second compound 10 µM, first compound 0.316 µM) of 7.08%. The viability, T/C (second compound 10 µM, first compound 1 µM) was 4.6%, the viability, T/C (second compound 10 µM, first compound 3.16 µM) was 3.71% and the viability, T/C (second compound 10 µM, first compound 10 µM) was 1.05%.
`Cn1ncnc1[C@H]1c2n[nH]c(=O)c3cc(F)cc(c23)N[C@@H]1c1ccc(F)cc1` + CC(Nc1ncnc2nc[nH]c12)c1cc2cccc(Cl)c2c(=O)n1-c1ccccc1 was tested, and the IC50 (second compound 0.0316 µM) was greater than 0.1 µM, the IC50 (second compound 0.1 µM) was greater than 0.1 µM and the IC50 (second compound 0.316 µM) was greater than 0.1 µM. For the same compound, the IC50 (second compound 1 µM) was greater than 0.1 µM, the IC50 (second compound 3.16 µM) was greater than 0.1 µM and the IC50 (second compound 10 µM) was 0.0804 µM. The viability, T/C (second compound 0.0316 µM, first compound 0.000316 µM) was 101%, the viability, T/C (second compound 0.0316 µM, first compound 0.001 µM) was 99.9% and the viability, T/C (second compound 0.0316 µM, first compound 0.00316 µM) was 102%. It also gave a viability, T/C (second compound 0.0316 µM, first compound 0.01 µM) of 112%, a viability, T/C [1] of 99.7% and a viability, T/C [2] of 96.8%. For the same compound, the viability, T/C (second compound 0.1 µM, first compound 0.000316 µM) was 96.5%, the viability, T/C (second compound 0.1 µM, first compound 0.001 µM) was 99.7% and the viability, T/C (second compound 0.1 µM, first compound 0.00316 µM) was 94.4%. It also gave a viability, T/C (second compound 0.1 µM, first compound 0.01 µM) of 102%, a viability, T/C [3] of 98.4% and a viability, T/C [4] of 97.1%. For the same compound, the viability, T/C (second compound 0.316 µM, first compound 0.000316 µM) was 93.5%, the viability, T/C (second compound 0.316 µM, first compound 0.001 µM) was 99.4% and the viability, T/C (second compound 0.316 µM, first compound 0.00316 µM) was 98%. The viability, T/C (second compound 0.316 µM, first compound 0.01 µM) was 101%, the viability, T/C [5] was 97.6% and the viability, T/C [6] was 99.3%. It also gave a viability, T/C (second compound 1 µM, first compound 0.000316 µM) of 100%, a viability, T/C (second compound 1 µM, first compound 0.001 µM) of 95.3% and a viability, T/C (second compound 1 µM, first compound 0.00316 µM) of 90.4%. For the same compound, the viability, T/C (second compound 1 µM, first compound 0.01 µM) was 86.2%, the viability, T/C [7] was 86.2% and the viability, T/C [8] was 89.1%. For the same compound, the viability, T/C (second compound 3.16 µM, first compound 0.000316 µM) was 70.3%, the viability, T/C (second compound 3.16 µM, first compound 0.001 µM) was 77.9% and the viability, T/C (second compound 3.16 µM, first compound 0.00316 µM) was 69.7%. The viability, T/C (second compound 3.16 µM, first compound 0.01 µM) was 65.5%, the viability, T/C [9] was 89.9% and the viability, T/C [10] was 67.2%. For the same compound, the viability, T/C (second compound 10 µM, first compound 0.000316 µM) was 54.8%, the viability, T/C (second compound 10 µM, first compound 0.001 µM) was 61.6% and the viability, T/C (second compound 10 µM, first compound 0.00316 µM) was 55.3%. For the same compound, the viability, T/C (second compound 10 µM, first compound 0.01 µM) was 54%, the viability, T/C [11] was 55% and the viability, T/C [12] was 48.9%.
